# Data reported in patent US20260347338A1, “PYRIMIDINE/PYRIDINE DERIVATIVES OR SALTS THEREOF AND PHARMACEUTICAL COMPOSITIONS COMPRISING THE SAME” (YUHAN CORPORATION, priority 2023, published 2026).
# Where a name gives a salt, the structure may show the parent alone.
# Target: T1, human recombinant HPK1 (Homo sapiens, UniProt Q92918)
# T1 construct: purchased BPS Bioscience
# Experiment: Inhibitory activity against human recombinant HPK1 (TR-FRET)
# Type: biochemical
# Settings: ULight-p70S6K peptide, ATP at Km, room temperature, 1 hour, 0.32 to 1000 nM compound
# In short: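 IC50 classes A–D use 10, 50 and 100 nM cut-offs, derived from TR-FRET signal inhibition relative to DMSO controls. Human recombinant HPK1 phosphorylated ULight-p70S6K peptide at Km ATP for 1 h, room temperature, pH 7.4; test range 0.32–1000 nM final, detection with Eu-labelled antibody after EDTA quench.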
# T1 sequence (Q92918 whole entry): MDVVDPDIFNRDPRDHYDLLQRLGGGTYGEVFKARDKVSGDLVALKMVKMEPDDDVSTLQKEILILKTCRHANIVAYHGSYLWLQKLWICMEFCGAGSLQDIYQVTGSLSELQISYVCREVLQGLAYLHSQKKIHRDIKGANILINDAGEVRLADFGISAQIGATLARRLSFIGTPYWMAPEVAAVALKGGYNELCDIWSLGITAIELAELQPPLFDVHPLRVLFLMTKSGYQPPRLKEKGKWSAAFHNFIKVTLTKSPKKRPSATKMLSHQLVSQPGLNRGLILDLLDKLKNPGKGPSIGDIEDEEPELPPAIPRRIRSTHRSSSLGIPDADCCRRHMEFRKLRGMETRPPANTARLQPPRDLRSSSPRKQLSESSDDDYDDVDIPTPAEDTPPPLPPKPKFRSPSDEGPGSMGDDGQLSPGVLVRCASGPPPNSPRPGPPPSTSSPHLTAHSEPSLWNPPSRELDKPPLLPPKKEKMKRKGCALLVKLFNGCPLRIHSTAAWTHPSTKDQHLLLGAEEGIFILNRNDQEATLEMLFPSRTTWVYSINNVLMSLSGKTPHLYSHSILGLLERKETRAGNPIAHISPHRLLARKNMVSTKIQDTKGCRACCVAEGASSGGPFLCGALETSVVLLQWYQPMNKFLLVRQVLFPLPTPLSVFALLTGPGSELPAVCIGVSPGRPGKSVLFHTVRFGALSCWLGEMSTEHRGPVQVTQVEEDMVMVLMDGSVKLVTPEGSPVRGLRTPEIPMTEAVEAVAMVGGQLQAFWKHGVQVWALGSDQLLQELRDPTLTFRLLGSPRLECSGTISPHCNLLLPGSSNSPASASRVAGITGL
row,Compound,IC50 [µM]
1,(S)-N-(4-(3-aminopiperidin-1-yl)-5-((tetrahydro-2H-pyran-4-yl)ethynyl)pyridin-2-yl)-2-(7-fluoroquinoxalin-6-yl)pyrimidin-4-amine hydrochloride [Example 90],≤ 0.01
2,"COc1cccc(F)c1-c1nccc(Nc2cc(N3CCC[C@H](N)C3)c(-c3ccc(C(=O)N(C)C)c(F)c3)cn2)n1 [Example 290, (S)-4-(4-(3-aminopiperidin-1-yl)-6-((2-(2-fluoro-6-methoxyphenyl)pyrimidin-4-yl)amino)pyridin-3-yl)-2-fluoro-N,N-dimethylbenzamide hydrochloride]",≤ 0.01
3,"COCC(C)(C)n1cc(-c2cnc(Nc3ccnc(-c4c(F)cccc4OC)n3)cc2N2CCC[C@H](N)C2)cn1 [Example 244, (S)-N-(4-(3-aminopiperidin-1-yl)-5-(1-(1-methoxy-2-methylpropan-2-yl)-1H-pyrazol-4-yl)pyridin-2-yl)-2-(2-fluoro-6-methoxyphenyl)pyrimidin-4-amine hydrochloride]",≤ 0.01
4,"COc1cccc(F)c1-c1nccc(Nc2cc(N3CCC[C@H](O)C3)c(-c3cnn(C4CC(C)(C)OC(C)(C)C4)c3)cn2)n1 [Example 264, (S)-1-(2-((2-(2-fluoro-6-methoxyphenyl)pyrimidin-4-yl)amino)-5-(1-(2,2,6,6-tetramethyltetrahydro-2H-pyran-4-yl)-1H-pyrazol-4-yl)pyridin-4-yl)piperidin-3-ol]",≤ 0.01
5,"CN[C@@H]1CCCN(c2cc(Nc3ccnc(-c4c(F)cccc4OC)n3)ncc2-c2cnn(C(F)F)c2)C1 [Example 123, (R)-N-(5-(1-(difluoromethyl)-1H-pyrazol-4-yl)-4-(3-(methylamino)piperidin-1-yl)pyridin-2-yl)-2-(2-fluoro-6-methoxyphenyl)pyrimidin-4-amine hydrochloride]",0.01 to 0.05
6,"COc1cc(CO)cc(F)c1-c1nccc(Nc2cc(N3CCC[C@H](N)C3)c(-c3cnn(C(F)F)c3)cn2)n1 [Example 101, (S)-(4-(4-((4-(3-aminopiperidin-1-yl)-5-(1-(difluoromethyl)-1H-pyrazol-4-yl)pyridin-2-yl)amino)pyrimidin-2-yl)-3-fluoro-5-methoxyphenyl)methanol hydrochloride]",≤ 0.01
7,"COc1cccc(F)c1-c1nccc(Nc2cc(N3CCC[C@H](O)C3)c(-c3ccc(C4CCOCC4)nc3)cn2)n1 [Example 31, (S)-1-(6-((2-(2-fluoro-6-methoxyphenyl)pyrimidin-4-yl)amino)-6′-(tetrahydro-2H-pyran-4-yl)-[3,3′-bipyridin]-4-yl)piperidin-3-ol]",≤ 0.01
8,"COc1cccc(F)c1-c1nc(Nc2cc(N3CCC[C@H](O)C3)c(-c3cnn(CC(F)(F)F)c3)cn2)ccc1N [Example 180, (3S)-1-(2-((5-amino-6-(2-fluoro-6-methoxyphenyl)pyridin-2-yl)amino)-5-(1-(2,2,2-trifluoroethyl)-1H-pyrazol-4-yl)pyridin-4-yl)piperidin-3-ol]",≤ 0.01
9,"COc1cccc(F)c1-c1nccc(N(CCN(C)C)c2cc(N3CCC[C@H](N)C3)c(-c3ccc(N)nc3)cn2)n1 [Example 240, (S)-4-(3-aminopiperidin-1-yl)-N^6-(2-(dimethylamino)ethyl)-N^6-(2-(2-fluoro-6-methoxyphenyl)pyrimidin-4-yl)-[3,3′-bipyridin]-6,6′-diamine hydrochloride]",≤ 0.01
10,"COc1cc(F)cc(F)c1-c1nccc(Nc2cc(N3CCC[C@H](O)C3)c(C#Cc3cnn(CC(F)F)c3)cn2)n1 [Example 219, (S)-1-(2-((2-(2,4-difluoro-6-methoxyphenyl)pyrimidin-4-yl)amino)-5-((1-(2,2-difluoroethyl)-1H-pyrazol-4-yl)ethynyl)pyridin-4-yl)piperidin-3-ol]",≤ 0.01
11,"6-((6-(2-fluoro-6-methoxyphenyl)-5-nitropyridin-2-yl)amino)-N-((1R,3S)-3-hydroxycyclopentyl)-4-((S)-3-hydroxypiperidin-1-yl)nicotinamide [Example 195]",≤ 0.01
12,"COc1cc(F)cc(F)c1-c1nccc(Nc2cc(N3CCC[C@](C)(N)C3)c(-c3cnn(C(F)F)c3)cn2)n1 [Example 212, (S)-N-(4-(3-amino-3-methylpiperidin-1-yl)-5-(1-(difluoromethyl)-1H-pyrazol-4-yl)pyridin-2-yl)-2-(2,4-difluoro-6-methoxyphenyl)pyrimidin-4-amine hydrochloride]",≤ 0.01
13,"COc1cccc(F)c1-c1nccc(Nc2cc(N3CCC(C4(O)CC4)CC3)c(-c3cnn(C4CCOCC4)c3)cn2)n1 [Example 65, 1-(1-(2-((2-(2-fluoro-6-methoxyphenyl)pyrimidin-4-yl)amino)-5-(1-(tetrahydro-2H-pyran-4-yl)-1H-pyrazol-4-yl)pyridin-4-yl)piperidin-4-yl)cyclopropan-1-ol]",≤ 0.01
14,2-(2-fluoro-6-methoxyphenyl)-6-((4-((S)-3-hydroxypiperidin-1-yl)-5-(1-(1-methylpiperidin-4-yl)-1H-pyrazol-4-yl)pyrimidin-2-yl)amino)nicotinonitrile [Example 63],0.05 to 0.1
15,"CN[C@H]1CCCN(c2cc(Nc3ccnc(-c4c(F)cccc4OC)n3)ncc2-c2cnn(C(F)F)c2)C1 [Example 122, (S)-N-(5-(1-(difluoromethyl)-1H-pyrazol-4-yl)-4-(3-(methylamino)piperidin-1-yl)pyridin-2-yl)-2-(2-fluoro-6-methoxyphenyl)pyrimidin-4-amine hydrochloride]",≤ 0.01
16,"COc1cc(F)cc(F)c1-c1nccc(Nc2cc(N3CCC[C@H](N)C3)c(C#CC3(O)CCOCC3)cn2)n1 [Example 312, (S)-4-((4-(3-aminopiperidin-1-yl)-6-((2-(2,4-difluoro-6-methoxyphenyl)pyrimidin-4-yl)amino)pyridin-3-yl)ethynyl)tetrahydro-2H-pyran-4-ol]",≤ 0.01
17,"COc1cccc(F)c1-c1nc(Nc2cc(N3CCC[C@H](O)C3)c(-c3cnn(C4CCOCC4)c3)cn2)ccc1F [Example 40, (3S)-1-(2-((5-fluoro-6-(2-fluoro-6-methoxyphenyl)pyridin-2-yl)amino)-5-(1-(tetrahydro-2H-pyran-4-yl)-1H-pyrazol-4-yl)pyridin-4-yl)piperidin-3-ol]",≤ 0.01
18,"COc1cccc(F)c1-c1nc(Nc2cc(N3CCC[C@H](N)C3)c(-c3cnn(CC(F)F)c3)cn2)ccc1N [Example 169, N^2-(4-((S)-3-aminopiperidin-1-yl)-5-(1-(2,2-difluoroethyl)-1H-pyrazol-4-yl)pyridin-2-yl)-6-(2-fluoro-6-methoxyphenyl)pyridin-2,5-diamine hydrochloride]",≤ 0.01
19,"COc1cccc(F)c1-c1nc(Nc2cc(N3CCC[C@H](O)C3)c(-c3cnn(C(F)F)c3)cn2)ccc1N [Example 150, (3S)-1-(2-((5-amino-6-(2-fluoro-6-methoxyphenyl)pyridin-2-yl)amino)-5-(1-(difluoromethyl)-1H-pyrazol-4-yl)pyridin-4-yl)piperidin-3-ol]",≤ 0.01
20,"N[C@H]1CCCN(c2cc(Nc3ccnc(-c4cc5nccnc5cc4F)n3)ncc2C#Cc2cnn(C(F)(F)F)c2)C1 [Example 115, (S)-N-(4-(3-aminopiperidin-1-yl)-5-((1-(trifluoromethyl)-1H-pyrazol-4-yl)ethynyl)pyridin-2-yl)-2-(7-fluoroquinoxalin-6-yl)pyrimidin-4-amine hydrochloride]",≤ 0.01
21,"COc1cccc(F)c1-c1nccc(Nc2cc(N3CCC[C@H](N)C3)c(-c3ccc(C4CCNCC4)nc3)cn2)n1 [Example 248, (S)-4-(3-aminopiperidin-1-yl)-N-(2-(2-fluoro-6-methoxyphenyl)pyrimidin-4-yl)-6′-(piperidin-4-yl)-[3,3′-bipyridin]-6-amine hydrochloride]",≤ 0.01
22,"COc1cc(C=O)cc(F)c1-c1nccc(Nc2cc(N3CCC[C@H](O)C3)c(-c3cnn(C4CCOCC4)c3)cn2)n1 [Example 189, (S)-3-fluoro-4-(4-((4-(3-hydroxypiperidin-1-yl)-5-(1-(tetrahydro-2H-pyran-4-yl)-1H-pyrazol-4-yl)pyridin-2-yl)amino)pyrimidin-2-yl)-5-methoxybenzaldehyde]",≤ 0.01
23,"COc1cccc(F)c1-c1nc(Nc2cc(N3CC[C@@H](F)[C@H](N)C3)c(-c3cnn(C(F)F)c3)cn2)ccc1F [Example 341, 4-((3R,4R)-3-amino-4-fluoropiperidin-1-yl)-5-(1-(difluoromethyl)-1H-pyrazol-4-yl)-N-(5-fluoro-6-(2-fluoro-6-methoxyphenyl)pyridin-2-yl)pyridin-2-amine hydrochloride]",≤ 0.01
24,"COc1cc(F)cc(F)c1-c1nc(Nc2cc(N3CCC[C@H](O)C3)c(-c3cnn(CC(F)F)c3)cn2)ccc1[N+](=O)[O-] [Example 223, (3S)-1-(2-((6-(2,4-difluoro-6-methoxyphenyl)-5-nitropyridin-2-yl)amino)-5-(1-(2,2-difluoroethyl)-1H-pyrazol-4-yl)pyridin-4-yl)piperidin-3-ol]",≤ 0.01
25,"COc1cccc(F)c1-c1nccc(Nc2cc(N3CCC[C@H](O)C3)c(-c3ccc(N4CCOCC4)nc3)cn2)n1 [Example 20, (S)-1-(6-((2-(2-fluoro-6-methoxyphenyl)pyrimidin-4-yl)amino)-6′-morpholino-[3,3′-bipyridin]-4-yl)piperidin-3-ol]",≤ 0.01
26,"COc1cccc(F)c1-c1nccc(Nc2cc(N3CCC[C@H](O)C3)c(-c3ccc(OC4CCN(C)CC4)cn3)cn2)n1 [Example 81, (S)-1-(6′-((2-(2-fluoro-6-methoxyphenyl)pyrimidin-4-yl)amino)-5-((1-methylpiperidin-4-yl)oxy)-[2,3′-bipyridin]-4′-yl)piperidin-3-ol]",> 0.1
27,"COc1cccc(F)c1-c1nccc(Nc2cc(N3CCC[C@H](N)C3)c(-c3cnc4c(c3)CCC(=O)N4)cn2)n1 [Example 276, (S)-6-(4-(3-aminopiperidin-1-yl)-6-((2-(2-fluoro-6-methoxyphenyl)pyrimidin-4-yl)amino)pyridin-3-yl)-3,4-dihydro-1,8-naphthyridin-2(1H)-one hydrochloride]",≤ 0.01
